Source: patent US4840950A, “4-arylcarbonyl-1-[(4-morpholinyl)-lower-alkyl]-1H-indoles” (Sterling Drug Inc., priority 1987, dated 1989)

Assays:
[1] = test system: acetylcholine-induced abdominal constriction in mice; assay: acetylcholine-induced abdominal constriction test (Ach), antinociceptive activity; format: in vivo; conditions: for ED50: Mus musculus, oral administration
Source text: (§1) The test procedures used to determine the analgesic activity of the compounds have been described in detail in the prior art and are as follows: The acetylcholine-induced abdominal constriction test, which is a primary analgesic screening test designed to measure the ability of a test agent to suppress acetylcholine-induced abdominal constriction in mice, described by Collier et al., Brit. J. Pharmacol, Chemotherap. 32, 295 (1968) and the rotorod performance test, which is a test designed to measure neurotoxicity of a test compound, described by Dunham et al., J. Pharm. Sci. 46, 206-209 (1957).
(§2) The 4-arylcarbonyl-1-[(4-morpholinyl)-lower-alkyl]-1H-indoles of the invention were tested in the acetylcholine-induced abdominal constriction test (Ach), which gives a measure of antinociceptive activity, and the rotorod assay (R.R.), which gives a measure of neurotoxicity and CNS impairment. The results, expressed in terms of the ED50 's obtained on oral administration in the acetylcholine test and as the ratio of the rotorod (R.R.):Ach ED50 's, are given in the following table: […]

[2] = rotorod performance test (R.R.), neurotoxicity and CNS impairment, as ratio to Ach; conditions: mouse, in vivo; ratio of rotorod (R.R.):Ach ED50's; Ach ED50 on oral administration
Source text: as §1, §2

For `COc1ccc(C(=O)c2cccc3c2ccn3CCN2CCOCC2)cc1.Cl` [Ex. 1A, 4-(4-methoxybenzoyl)-1-[2-(4-morpholinyl)ethyl]-1H-indole hydrochloride], the “Ach (percent effect)” value ([1]; 93%/100(s.c.): at 100 (dose unit not given), s.c.) was 93%, the ED50 [1] was 46 mg/kg and the selectivity ratio [2] was 3.1.

`COc1ccc(C(=O)c2cccc3c2ccn3CCCN2CCOCC2)cc1.Cl` [Ex. 1B, 4-(4-methoxybenzoyl)-1-[3-(4-morpholinyl)propyl]-1H-indole hydrochloride] gave an ED50 [1] of 63 mg/kg and a selectivity ratio [2] of 2.8.

`O=C(c1cccc2ccccc12)c1cccc2c1ccn2CCN1CCOCC1` [Ex. 1C, 1-[2-(4-morpholinyl)ethyl]-4-(1-naphthylcarbonyl)-1H-indole p-toluenesulfonate hydrate 3:1] showed an ED50 [1] of 16 mg/kg.
